Source: patent US10065990B2, “Cyclic peptide compound, and preparation method, pharmaceutical composition and use thereof” (HANGZHOU GUANYU BIO-MEDICAL CO., LTD, priority 2013, dated 2018)
Where two headings read alike, the source gives them in different places.

Legend:
[1] = molecular target: T1, HDAC7 (Homo sapiens, UniProt Q8WUI4); test: HDAC biochemical activity measurement (fluorescent substrate deacetylation);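 note: fluorogenic deacetylation assay using acetyl-lysine substrate at 20 µM, enzyme and compound incubated 30 min at 37 °C, then developer added, fluorescence read at 360/460 nm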; conditions: HDAC7; 37° C. 30 minutes
T1 sequence (Q8WUI4 1-952): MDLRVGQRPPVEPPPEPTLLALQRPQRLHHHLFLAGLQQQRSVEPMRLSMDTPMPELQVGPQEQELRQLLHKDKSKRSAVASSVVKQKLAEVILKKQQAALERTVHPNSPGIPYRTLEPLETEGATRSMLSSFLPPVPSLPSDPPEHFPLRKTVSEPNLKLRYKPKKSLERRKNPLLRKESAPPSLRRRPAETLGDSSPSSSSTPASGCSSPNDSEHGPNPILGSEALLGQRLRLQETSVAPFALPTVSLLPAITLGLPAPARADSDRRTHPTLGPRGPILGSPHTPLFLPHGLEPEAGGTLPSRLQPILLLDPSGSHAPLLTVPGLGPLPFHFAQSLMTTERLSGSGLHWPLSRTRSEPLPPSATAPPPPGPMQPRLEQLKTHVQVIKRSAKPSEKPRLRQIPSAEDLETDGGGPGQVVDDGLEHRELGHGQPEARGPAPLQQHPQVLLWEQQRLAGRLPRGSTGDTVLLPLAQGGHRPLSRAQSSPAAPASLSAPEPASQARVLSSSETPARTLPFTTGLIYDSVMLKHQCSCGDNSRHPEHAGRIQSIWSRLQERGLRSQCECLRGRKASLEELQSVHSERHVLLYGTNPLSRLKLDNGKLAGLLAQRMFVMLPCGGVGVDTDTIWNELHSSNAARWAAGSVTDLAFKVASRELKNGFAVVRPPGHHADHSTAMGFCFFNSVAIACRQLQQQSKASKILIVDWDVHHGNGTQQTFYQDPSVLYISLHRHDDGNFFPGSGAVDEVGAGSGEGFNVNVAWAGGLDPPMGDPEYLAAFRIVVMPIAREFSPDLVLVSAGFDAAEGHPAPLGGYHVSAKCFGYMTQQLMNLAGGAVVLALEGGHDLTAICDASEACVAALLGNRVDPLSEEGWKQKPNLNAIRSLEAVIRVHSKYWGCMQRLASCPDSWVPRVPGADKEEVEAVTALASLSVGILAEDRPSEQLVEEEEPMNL

[2] = system: A549 (human lung cancer cells); test: MTT cancer cell growth inhibition; format: cell-based; conditions: MTT, 72 hours incubation, read-out: GI50 A54
In short: (§1)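 Three-day compound exposure (final 10^−5–10^−10 M, three replicate wells) of cells seeded at 1500 per well precedes a 4 h MTT incubation at 37° C. Viability is taken from 570 nm absorbance after DMSO solubilisation, and GI50 calculated from it.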

[3] = system: BGC-823 (human gastric cancer cells); test: MTT cancer cell growth inhibition; format: cell-based; conditions: MTT, 72 hours incubation, read-out: GI50 BG
In short: as §1

[4] = system: Bel-7402 (human hepatoma cells); test: MTT cancer cell growth inhibition; format: cell-based; conditions: MTT, 72 hours incubation, Bel-7402 cells, read-out: GI50 Bel-7402
In short: as §1

[5] = system: DU145 (human prostate cancer cells); test: MTT cancer cell growth inhibition; format: cell-based; conditions: MTT, 72 hours incubation, read-out: GI50 Du1
In short: as §1

[6] = system: H1975 (non-small cell lung adenocarcinoma); test: MTT cancer cell growth inhibition; format: cell-based; conditions: MTT, 72 hours incubation, H1975 cells, read-out: GI50 H1975
In short: as §1

[7] = system: HCC827 (human non-small cell lung cancer cells); test: MTT cancer cell growth inhibition; format: cell-based; conditions: MTT, 72 hours incubation, HCC827 cells, read-out: GI50 HCC827
In short: as §1

[8] = system: HT1080 (human fibrosarcoma cells); test: MTT cancer cell growth inhibition; format: cell-based; conditions: MTT, 72 hours incubation, read-out: GI50 HT1
In short: as §1

[9] = system: Hela (human cervical cancer cells); test: MTT cancer cell growth inhibition; format: cell-based; conditions: MTT, 72 hours incubation, read-out: GI50 Hela
In short: as §1

[10] = system: Huh-7 (human hepatoma cells); test: MTT cancer cell growth inhibition; format: cell-based; conditions: MTT, 72 hours incubation, Huh-7 cells, read-out: GI50 Huh-7
In short: as §1

[11] = system: K562 (human leukemia cells); test: MTT cancer cell growth inhibition; format: cell-based; conditions: MTT, 72 hours incubation, K562 cells, read-out: GI50 K562
In short: as §1

[12] = system: KBM-5 (human chronic myelogenous leukemia); test: MTT cancer cell growth inhibition; format: cell-based; conditions: MTT, 72 hours incubation, KBM-5 cells, read-out: GI50 KBM-5
In short: as §1

[13] = system: KBM5-T315I (human chronic myelogenous leukemia); test: MTT cancer cell growth inhibition; format: cell-based; conditions: MTT, 72 hours incubation, KBM5-T315I cells, read-out: GI50 KBM5-T315I
In short: as §1

[14] = system: MCF-7 (human breast cancer cells); test: MTT cancer cell growth inhibition; format: cell-based; conditions: 72 hours incubation, read-out: GI50 MCF
In short: as §1

[15] = system: MDA-MB-231 (breast cancer cells); test: MTT cancer cell growth inhibition; format: cell-based
In short: as §1

[16] = system: MOLT-4 (human acute lymphoblastic leukemia cells); test: MTT cancer cell growth inhibition; format: cell-based; conditions: MTT, 72 hours incubation, read-out: GI50 Mol
In short: as §1

[17] = system: N-87 (human gastric cancer cells); test: MTT cancer cell growth inhibition; format: cell-based; conditions: MTT, 72 hours incubation, N-87 cells, read-out: GI50 N-87
In short: as §1

[18] = system: PANC-1 (Pac-1, human pancreatic cancer cells); test: MTT cancer cell growth inhibition; format: cell-based; conditions: MTT, 72 hours incubation, read-out: GI50 PAN
In short: as §1

[19] = system: SGC-7901 (human gastric cancer cells); test: MTT cancer cell growth inhibition; format: cell-based; conditions: MTT, 72 hours incubation, SGC-7901 cells, read-out: GI50 SGC-7901
In short: as §1

[20] = system: U937 (human leukemia cells); test: MTT cancer cell growth inhibition; format: cell-based; conditions: MTT, 72 hours incubation, read-out: GI50 U93
In short: as §1

[21] = system: lncap (prostate cancer cells); test: MTT cancer cell growth inhibition; format: cell-based; conditions: MTT, 72 hours incubation, read-out: GI50 lnca
In short: as §1

[22] = Homo sapiens, A549, 72 h, A549 cells
[23] = Homo sapiens, BGC-823, 72 h, BGC-823 cells
[24] = Homo sapiens, DU-145, 72 h, DU145 cells
[25] = Homo sapiens, HT-1080, 72 h, HT1080 cells
[26] = Homo sapiens, HeLa, 72 h, Hela cells
[27] = Homo sapiens, MCF7, 72 h, MCF-7 cells
[28] = Homo sapiens, MDA-MB-231, 72 h, read-out: GI50 MDA-MB-231, MTT, 72 hours incubation, MDA-MB-231 cells
[29] = Homo sapiens, MOLT-4, 72 h, MOLT-4 cells
[30] = Homo sapiens, PANC-1, 72 h, PANC-1 cells
[31] = Homo sapiens, U-937, 72 h, U937 cells
[32] = Homo sapiens, LNCaP, 72 h, lncap cells

## C/C=C1\NC(=O)c2ccc(SC)c(n2)CNC(=O)C[C@@H](/C=C/CCSC(C)=O)OC(=O)[C@H](C(C)C)NC1=O [Compound 209]
[1]
  IC50 HDAC7: no activity
[2]; A549 cells
  GI50: 20 nM
[3]; BGC-823 cells
  GI50: 40 nM
[4]
  GI50: 13 nM
[5]; DU145 cells
  GI50: 70 nM
[6]
  GI50: 17 nM
[7]
  GI50: 85 nM
[8]; HT1080 cells
  GI50: 30 nM
[9]; Hela cells
  GI50: 90 nM
[10]
  GI50: 23 nM
[11]
  GI50: 39 nM
[12]
  GI50: 46 nM
[13]
  GI50: 31 nM
[14]; MCF-7 cells
  GI50: 20 nM
[15]; read-out: GI50 MDA-MB-231, MTT, 72 hours incubation, MDA-MB-231 cells
  GI50: 35 nM
[16]; MOLT-4 cells
  GI50: 70 nM
[17]
  GI50: 51 nM
[18]; PANC-1 cells
  GI50: 20 nM
[19]
  GI50: 41 nM
[20]; U937 cells
  GI50: 30 nM
[21]; lncap cells
  GI50: 20 nM

## C/C=C1\NC(=O)c2nc(ccc2SC)CNC(=O)C[C@@H](/C=C/CCS)OC(=O)[C@H](C(C)C)NC1=O [Compound 226]
[1]
  IC50 HDAC7: no activity
[2]; [22]
  GI50: 60 nM
[3]; [23]
  GI50: 50 nM
[4]; Homo sapiens, Bel-7402, 72 h
  GI50: 31 nM
[5]; [24]
  GI50: 30 nM
[6]; Homo sapiens, NCI-H1975, 72 h
  GI50: 37 nM
[7]; Homo sapiens, HCC827, 72 h
  GI50: 33 nM
[8]; [25]
  GI50: 20 nM
[9]; [26]
  GI50: 90 nM
[10]; Homo sapiens, Huh-7, 72 h
  GI50: 68 nM
[11]; Homo sapiens, K562, 72 h
  GI50: 61 nM
[12]; Homo sapiens, KBM5, 72 h
  GI50: 75 nM
[13]; Homo sapiens, 72 h
  GI50: 65 nM
[14]; [27]
  GI50: 20 nM
[15]; [28]
  GI50: 34 nM
[16]; [29]
  GI50: 30 nM
[17]; Homo sapiens, 72 h
  GI50: 35 nM
[18]; [30]
  GI50: 20 nM
[19]; Homo sapiens, SGC-7901, 72 h
  GI50: 23 nM
[20]; [31]
  GI50: 40 nM
[21]; [32]
  GI50: 30 nM

## C/C=C1\NC(=O)c2nc(ccc2F)CNC(=O)C[C@@H](/C=C/CCS)OC(=O)[C@H](CC)NC1=O [Compound 109]
[1]
  IC50 HDAC7: no activity
[2]; Homo sapiens, A549, 72 h
  GI50: 50 nM
[3]; Homo sapiens, BGC-823, 72 h
  GI50: 20 nM
[4]; Homo sapiens, Bel-7402, 72 h
  GI50: 56 nM
[5]; Homo sapiens, DU-145, 72 h
  GI50: 40 nM
[6]; Homo sapiens, NCI-H1975, 72 h
  GI50: 31 nM
[7]; Homo sapiens, HCC827, 72 h
  GI50: 51 nM
[8]; Homo sapiens, HT-1080, 72 h
  GI50: 70 nM
[9]; Homo sapiens, HeLa, 72 h
  GI50: 70 nM
[10]; Homo sapiens, Huh-7, 72 h
  GI50: 46 nM
[11]; Homo sapiens, K562, 72 h
  GI50: 28 nM
[12]; Homo sapiens, KBM5, 72 h
  GI50: 82 nM
[13]; Homo sapiens, 72 h
  GI50: 71 nM
[14]; Homo sapiens, MCF7, 72 h
  GI50: 20 nM
[15]; [28]
  GI50: 126 nM
[16]; Homo sapiens, MOLT-4, 72 h
  GI50: 30 nM
[17]; Homo sapiens, 72 h
  GI50: 61 nM
[18]; Homo sapiens, PANC-1, 72 h
  GI50: 70 nM
[19]; Homo sapiens, SGC-7901, 72 h
  GI50: 42 nM
[20]; Homo sapiens, U-937, 72 h
  GI50: 40 nM
[21]; Homo sapiens, LNCaP, 72 h
  GI50: 30 nM

## C/C=C1\NC(=O)c2cc(SC)cc(n2)CNC(=O)C[C@@H](/C=C/CCSC(C)=O)OC(=O)[C@H](C(C)C)NC1=O [Compound 166]
[1]
  IC50 HDAC7: no activity
[2]; [22]
  GI50: 10 nM
[3]; [23]
  GI50: 70 nM
[4]; Homo sapiens, Bel-7402, 72 h
  GI50: 68 nM
[5]; [24]
  GI50: 60 nM
[6]; Homo sapiens, NCI-H1975, 72 h
  GI50: 26 nM
[7]; Homo sapiens, HCC827, 72 h
  GI50: 31 nM
[8]; [25]
  GI50: 80 nM
[9]; [26]
  GI50: 50 nM
[10]; Homo sapiens, Huh-7, 72 h
  GI50: 56 nM
[11]; Homo sapiens, K562, 72 h
  GI50: 46 nM
[12]; Homo sapiens, KBM5, 72 h
  GI50: 50 nM
[13]; Homo sapiens, 72 h
  GI50: 53 nM
[14]; [27]
  GI50: 60 nM
[15]; [28]
  GI50: 17 nM
[16]; [29]
  GI50: 30 nM
[17]; Homo sapiens, 72 h
  GI50: 73 nM
[18]; [30]
  GI50: 20 nM
[19]; Homo sapiens, SGC-7901, 72 h
  GI50: 42 nM
[20]; [31]
  GI50: 30 nM
[21]; [32]
  GI50: 70 nM

## C/C=C1\NC(=O)c2ccc(SC)c(n2)CNC(=O)C[C@@H](/C=C/CCS)OC(=O)[C@H](C(C)C)NC1=O [Compound 228]
[1]
  IC50 HDAC7: no activity
[2]; [22]
  GI50: 30 nM
[3]; [23]
  GI50: 60 nM
[4]; Homo sapiens, Bel-7402, 72 h
  GI50: 56 nM
[5]; [24]
  GI50: 20 nM
[6]; Homo sapiens, NCI-H1975, 72 h
  GI50: 48 nM
[7]; Homo sapiens, HCC827, 72 h
  GI50: 17 nM
[8]; [25]
  GI50: 40 nM
[9]; [26]
  GI50: 10 nM
[10]; Homo sapiens, Huh-7, 72 h
  GI50: 35 nM
[11]; Homo sapiens, K562, 72 h
  GI50: 62 nM
[12]; Homo sapiens, KBM5, 72 h
  GI50: 62 nM
[13]; Homo sapiens, 72 h
  GI50: 33 nM
[14]; [27]
  GI50: 30 nM
[15]; [28]
  GI50: 69 nM
[16]; [29]
  GI50: 50 nM
[17]; Homo sapiens, 72 h
  GI50: 35 nM
[18]; [30]
  GI50: 30 nM
[19]; Homo sapiens, SGC-7901, 72 h
  GI50: 12 nM
[20]; [31]
  GI50: 40 nM
[21]; [32]
  GI50: 20 nM
